# Reference: PubChem BioAssay AID220 (DTP/NCI, 2004)
# Where “and” joins values, the source holds several entries; their conditions need not be identical. Identical values can stand only once. Inconclusive results are not listed.
# Test system: CD8F1 mice, subcutaneous mammary adenocarcinoma, T/C%
# Experiment: NCI In Vivo Anticancer Drug Screen. Data for tumor model Mammary Adenocarcinoma CD8F1 (subcutaneous) in CD8F1
# Settings: higher = larger tumour
# Procedure: The antitumor activity of compounds was measured in mice bearing transplantable tumors. Survival or tumor size were measured and the results are expressed as the measurement made in the treated group (T) divided by the measurement made in the vehicle treated control group (C). The tumor model used in this assay is Mammary Adenocarcinoma CD8F1 (subcutaneous) in CD8F1
# [1] = endpoint: median tumor weight change, dose: 125.0 mg/kg/injection, schedule: Q01DX001 (ip), vehicle: water
# [2] = endpoint: median tumor weight (est.), dose: 12.5 mg/kg/injection, schedule: Q07DX005 (ip), vehicle: saline
compound,measurement,setting,value
NC(=S)N/N=C/c1ccc(OC(=O)COc2ccccc2)cn1,T/C,"endpoint: mean tumor weight, dose: 12.5 mg/kg/injection, schedule: Q07DX005 (ip), vehicle: saline with Tween-80",99 % of control
same,T/C,"endpoint: mean tumor weight, dose: 12.5 mg/kg/injection, schedule: Q07DX006 (ip), vehicle: saline with Tween-80",96 % of control
same,T/C,"endpoint: mean tumor weight, dose: 25.0 mg/kg/injection, schedule: Q07DX005 (ip), vehicle: saline with Tween-80",89 % of control
same,T/C,"endpoint: mean tumor weight, dose: 25.0 mg/kg/injection, schedule: Q07DX006 (ip), vehicle: saline with Tween-80",106 % of control
same,T/C,"endpoint: mean tumor weight, dose: 50.0 mg/kg/injection, schedule: Q07DX005 (ip), vehicle: saline with Tween-80",86 % of control
same,T/C,"endpoint: mean tumor weight, dose: 50.0 mg/kg/injection, schedule: Q07DX006 (ip), vehicle: saline with Tween-80",83 % of control
same,T/C,"endpoint: mean tumor weight, dose: 100.0 mg/kg/injection, schedule: Q07DX005 (ip), vehicle: saline with Tween-80",52 % of control
same,T/C,"endpoint: mean tumor weight, dose: 100.0 mg/kg/injection, schedule: Q07DX006 (ip), vehicle: saline with Tween-80",101 % of control
same,T/C,"endpoint: mean tumor weight, dose: 200.0 mg/kg/injection, schedule: Q07DX005 (ip), vehicle: saline with Tween-80",65 % of control
same,T/C,"endpoint: mean tumor weight, dose: 200.0 mg/kg/injection, schedule: Q07DX006 (ip), vehicle: saline with Tween-80",33 % of control
CCCCCCCC(=O)[O][Hg][CH2]C1COC([CH2][Hg][O]C(=O)CCCCCCC)CO1 (stereo not given),T/C,"endpoint: median tumor weight (est.), dose: 3.0 mg/kg/injection, schedule: Q07DX005 (ip), vehicle: saline with Tween-80",90 % of control
same,T/C,"endpoint: median tumor weight (est.), dose: 6.0 mg/kg/injection, schedule: Q07DX005 (ip), vehicle: saline with Tween-80",95 % of control
same,T/C,"endpoint: median tumor weight (est.), dose: 6.25 mg/kg/injection, schedule: Q07DX005 (ip), vehicle: saline with Tween-80",100 % of control
same,T/C,"endpoint: median tumor weight (est.), dose: 12.0 mg/kg/injection, schedule: Q07DX005 (ip), vehicle: saline with Tween-80",80 % of control
same,T/C,"endpoint: median tumor weight (est.), dose: 12.5 mg/kg/injection, schedule: Q07DX005 (ip), vehicle: saline with Tween-80",50 % of control
same,T/C,"endpoint: median tumor weight (est.), dose: 50.0 mg/kg/injection, schedule: Q07DX005 (ip), vehicle: saline with Tween-80",100 % of control
CC(C)[C@](O)(C(=O)OCC1=CCN2CC[C@@H](O)[C@@H]12)[C@H](C)O,T/C,[1],78 % of control
same,T/C,"endpoint: median tumor weight change, dose: 250.0 mg/kg/injection, schedule: Q01DX001 (ip), vehicle: water",179 % of control
Brc1c(NC2=NCCN2)ccc2nccnc12,T/C,"endpoint: median tumor weight change, dose: 15.6 mg/kg/injection, schedule: Q01DX001 (ip), vehicle: saline",52 % of control
same,T/C,"endpoint: median tumor weight change, dose: 31.25 mg/kg/injection, schedule: Q01DX001 (ip), vehicle: saline",77 % of control
same,T/C,"endpoint: median tumor weight change, dose: 62.5 mg/kg/injection, schedule: Q01DX001 (ip), vehicle: saline",81 % of control
same,T/C,"endpoint: median tumor weight change, dose: 125.0 mg/kg/injection, schedule: Q01DX001 (ip), vehicle: saline",92 % of control
same,T/C,"endpoint: median tumor weight change, dose: 250.0 mg/kg/injection, schedule: Q01DX001 (ip), vehicle: saline",53 % of control
Nc1nc(=S)c2[nH]cnc2[nH]1,T/C,"endpoint: median tumor weight (est.), dose: 1.0 mg/kg/injection, schedule: Q07DX005 (ip), vehicle: Klucel (hydroxypropylcellulose) (HPC)",71 % of control
same,T/C,"endpoint: median tumor weight (est.), dose: 2.0 mg/kg/injection, schedule: Q07DX005 (ip), vehicle: Klucel (hydroxypropylcellulose) (HPC)",74 % of control
same,T/C,"endpoint: median tumor weight (est.), dose: 4.0 mg/kg/injection, schedule: Q07DX005 (ip), vehicle: Klucel (hydroxypropylcellulose) (HPC)",42 % of control
same,T/C,"endpoint: median tumor weight (est.), dose: 8.0 mg/kg/injection, schedule: Q07DX005 (ip), vehicle: Klucel (hydroxypropylcellulose) (HPC)",20 % of control
same,T/C,"endpoint: median tumor weight (est.), dose: 8.0 mg/kg/injection, schedule: Q07DX005 (ip), vehicle: other",29 % of control
same,T/C,"endpoint: median tumor weight (est.), dose: 12.0 mg/kg/injection, schedule: Q07DX005 (ip), vehicle: other",19 % of control
same,T/C,"endpoint: median tumor weight (est.), dose: 16.0 mg/kg/injection, schedule: Q07DX005 (ip), vehicle: Klucel (hydroxypropylcellulose) (HPC)",7 % of control
same,T/C,"endpoint: median tumor weight (est.), dose: 16.0 mg/kg/injection, schedule: Q07DX005 (ip), vehicle: other",16 % of control
NCCCC(N)(C(=O)O)C(F)F (stereo not given),T/C,"endpoint: median tumor weight change, dose: 125.0 mg/kg/injection, schedule: Q01DX001 (ip), vehicle: distilled water + alcohol",29 % of control
same,T/C,"endpoint: median tumor weight change, dose: 250.0 mg/kg/injection, schedule: Q01DX001 (ip), vehicle: distilled water + alcohol",51 % of control
same,T/C,"endpoint: median tumor weight change, dose: 500.0 mg/kg/injection, schedule: Q01DX001 (ip), vehicle: distilled water + alcohol",64 % of control
same,T/C,"endpoint: median tumor weight change, dose: 1000.0 mg/kg/injection, schedule: Q01DX001 (ip), vehicle: distilled water + alcohol",36 % of control
same,T/C,"endpoint: median tumor weight change, dose: 2000.0 mg/kg/injection, schedule: Q01DX001 (ip), vehicle: distilled water + alcohol",72 % of control
COc1cc(NCc2ccc3nc(N)nc(N)c3c2C)cc(OC)c1OC (tested in a mixture with another compound),T/C,"endpoint: median tumor weight (est.), dose: 32.0 mg/kg/injection, schedule: Q04DX007 (ip), vehicle: water",87 % of control
same,T/C,"endpoint: median tumor weight (est.), dose: 46.0 mg/kg/injection, schedule: Q07DX005 (ip), vehicle: water",24 % of control
same,T/C,"endpoint: median tumor weight (est.), dose: 47.4 mg/kg/injection, schedule: Q04DX007 (ip), vehicle: water",35 % of control
same,T/C,"endpoint: median tumor weight (est.), dose: 70.0 mg/kg/injection, schedule: Q07DX005 (ip), vehicle: water",27 % of control
same,T/C,"endpoint: median tumor weight (est.), dose: 71.1 mg/kg/injection, schedule: Q04DX007 (ip), vehicle: water",113 % of control
same,T/C,"endpoint: median tumor weight (est.), dose: 105.0 mg/kg/injection, schedule: Q07DX005 (ip), vehicle: water",24 % of control
same,T/C,"endpoint: median tumor weight (est.), dose: 106.7 mg/kg/injection, schedule: Q04DX007 (ip), vehicle: water",42 % of control
same,T/C,"endpoint: median tumor weight (est.), dose: 157.0 mg/kg/injection, schedule: Q07DX005 (ip), vehicle: water",13 % of control
same,T/C,"endpoint: median tumor weight (est.), dose: 160.0 mg/kg/injection, schedule: Q04DX007 (ip), vehicle: water",32 % of control
NC(=O)c1ncn(C2OC(CO)C(O)C2O)n1 (stereo not given),T/C,"endpoint: mean tumor weight, dose: 12.5 mg/kg/injection, schedule: Q07DX006 (ip), vehicle: saline",120 % of control
same,T/C,"endpoint: mean tumor weight, dose: 25.0 mg/kg/injection, schedule: Q07DX006 (ip), vehicle: saline",288 % of control
same,T/C,"endpoint: mean tumor weight, dose: 50.0 mg/kg/injection, schedule: Q07DX006 (ip), vehicle: saline",60 % of control
same,T/C,"endpoint: mean tumor weight, dose: 100.0 mg/kg/injection, schedule: Q07DX006 (ip), vehicle: saline",35 % of control
same,T/C,"endpoint: mean tumor weight, dose: 200.0 mg/kg/injection, schedule: Q07DX006 (ip), vehicle: saline",41 % of control
same,T/C,"endpoint: mean tumor weight, dose: 400.0 mg/kg/injection, schedule: Q07DX006 (ip), vehicle: saline",27 % of control
same,T/C,[2],118 % of control
same,T/C,"endpoint: median tumor weight (est.), dose: 25.0 mg/kg/injection, schedule: Q07DX005 (ip), vehicle: saline",165 % of control
same,T/C,"endpoint: median tumor weight (est.), dose: 50.0 mg/kg/injection, schedule: Q07DX005 (ip), vehicle: saline",97 % of control
same,T/C,"endpoint: median tumor weight (est.), dose: 100.0 mg/kg/injection, schedule: Q07DX005 (ip), vehicle: saline",102 % of control
same,T/C,"endpoint: median tumor weight (est.), dose: 200.0 mg/kg/injection, schedule: Q07DX005 (ip), vehicle: saline",46 % of control
same,T/C,"endpoint: median tumor weight (est.), dose: 400.0 mg/kg/injection, schedule: Q07DX005 (ip), vehicle: saline",48 % of control
COc1cc(C(=O)c2cocc2C(=O)c2ccc3c(c2)OCO3)cc(OC)c1OC,T/C,"endpoint: median tumor weight change, dose: 125.0 mg/kg/injection, schedule: Q01DX001 (ip), vehicle: Klucel (hydroxypropylcellulose) (HPC)",92 % of control
same,T/C,"endpoint: median tumor weight change, dose: 250.0 mg/kg/injection, schedule: Q01DX001 (ip), vehicle: Klucel (hydroxypropylcellulose) (HPC)",73 % of control
same,T/C,"endpoint: median tumor weight change, dose: 500.0 mg/kg/injection, schedule: Q01DX001 (ip), vehicle: Klucel (hydroxypropylcellulose) (HPC)",62 % of control
same,T/C,"endpoint: median tumor weight change, dose: 1000.0 mg/kg/injection, schedule: Q01DX001 (ip), vehicle: Klucel (hydroxypropylcellulose) (HPC)",40 % of control
COc1cccc2c1C(=O)c1c(O)c3c(c(O)c1C2=O)C[C@H](O)C[C@@H]3OC1CC(N)C(O)C(C)O1 (stereo not given in full),T/C,"endpoint: median tumor weight (est.), dose: 0.78 mg/kg/injection, schedule: Q07DX005 (ip), vehicle: saline",68 % of control
same,T/C,"endpoint: median tumor weight (est.), dose: 1.56 mg/kg/injection, schedule: Q07DX005 (ip), vehicle: saline",79 % of control
same,T/C,"endpoint: median tumor weight (est.), dose: 3.12 mg/kg/injection, schedule: Q07DX005 (ip), vehicle: saline",82 % of control
same,T/C,"endpoint: median tumor weight (est.), dose: 6.25 mg/kg/injection, schedule: Q07DX005 (ip), vehicle: saline",84 % of control
same,T/C,[2],70 % of control
COc1ccc2c(c1)CCn1c(C)c(COC(=O)NC(C)C)c(COC(=O)NC(C)C)c1-2,T/C,"endpoint: median tumor weight change, dose: 15.62 mg/kg/injection, schedule: Q01DX001 (ip), vehicle: distilled water + Tween-80",107 % of control
same,T/C,"endpoint: median tumor weight change, dose: 31.0 mg/kg/injection, schedule: Q01DX001 (ip), vehicle: distilled water + Tween-80",106 % of control
same,T/C,"endpoint: median tumor weight change, dose: 31.25 mg/kg/injection, schedule: Q01DX001 (ip), vehicle: distilled water + Tween-80",109 % of control and 114 % of control
same,T/C,"endpoint: median tumor weight change, dose: 62.0 mg/kg/injection, schedule: Q01DX001 (ip), vehicle: distilled water + Tween-80",58 % of control
same,T/C,"endpoint: median tumor weight change, dose: 250.0 mg/kg/injection, schedule: Q01DX001 (ip), vehicle: distilled water + Tween-80",26 % of control
C1CC[N-]CC1.[Cl][Pt+2][Cl].[NH-]C1CC1,T/C,"endpoint: median tumor weight change, dose: 31.0 mg/kg/injection, schedule: Q01DX001 (ip), vehicle: water",116 % of control
same,T/C,"endpoint: median tumor weight change, dose: 62.0 mg/kg/injection, schedule: Q01DX001 (ip), vehicle: water",121 % of control
same,T/C,"endpoint: median tumor weight change, dose: 62.5 mg/kg/injection, schedule: Q01DX001 (ip), vehicle: distilled water + Tween-80",26 % of control
same,T/C,[1],21 % of control
